Consider two compounds from publication PMC10485906, “Development of a Dihydroquinoline–Pyrazoline GluN2C/2D-Selective Negative Allosteric Modulator of the N-Methyl-D-aspartate Receptor” (ACS Chemical Neuroscience, 2023).

SMILES strings stand for the structures. Some results are limits rather than exact numbers.

T1 sequence (P10635 whole entry): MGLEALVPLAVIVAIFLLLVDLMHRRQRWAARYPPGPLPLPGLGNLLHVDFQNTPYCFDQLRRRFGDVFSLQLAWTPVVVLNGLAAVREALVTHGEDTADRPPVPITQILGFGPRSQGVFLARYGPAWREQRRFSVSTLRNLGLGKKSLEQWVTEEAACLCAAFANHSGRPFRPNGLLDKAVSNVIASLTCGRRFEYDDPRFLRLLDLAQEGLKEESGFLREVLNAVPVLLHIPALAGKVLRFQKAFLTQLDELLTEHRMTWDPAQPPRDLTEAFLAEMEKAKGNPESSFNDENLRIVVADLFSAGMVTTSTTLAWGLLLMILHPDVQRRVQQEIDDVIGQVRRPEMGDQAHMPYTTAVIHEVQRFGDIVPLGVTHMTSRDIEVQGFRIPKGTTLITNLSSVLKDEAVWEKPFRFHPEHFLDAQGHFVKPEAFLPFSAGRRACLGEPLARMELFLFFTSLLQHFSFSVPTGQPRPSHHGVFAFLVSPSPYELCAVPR

In the first series the target is CYP3A4 (Homo sapiens, UniProt P08684). Description: biochemical.
CYP3A4, sequence (P08684 whole entry): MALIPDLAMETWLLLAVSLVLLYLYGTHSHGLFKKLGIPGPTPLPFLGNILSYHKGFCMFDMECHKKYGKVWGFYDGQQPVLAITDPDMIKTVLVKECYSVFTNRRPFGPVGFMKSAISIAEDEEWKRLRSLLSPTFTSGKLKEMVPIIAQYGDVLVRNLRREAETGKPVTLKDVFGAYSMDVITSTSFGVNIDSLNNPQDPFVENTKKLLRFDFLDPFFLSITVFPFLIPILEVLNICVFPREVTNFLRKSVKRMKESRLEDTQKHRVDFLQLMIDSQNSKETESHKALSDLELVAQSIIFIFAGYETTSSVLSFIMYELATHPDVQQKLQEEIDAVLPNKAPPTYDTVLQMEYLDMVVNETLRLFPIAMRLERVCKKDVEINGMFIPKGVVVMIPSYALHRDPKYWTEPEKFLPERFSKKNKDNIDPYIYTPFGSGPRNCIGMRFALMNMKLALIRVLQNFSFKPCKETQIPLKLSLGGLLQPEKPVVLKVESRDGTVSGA
Conditions: not given
As usually defined, the IC50 is the concentration that gives 50% inhibition. `NC(=O)CC(F)(F)C(=O)N1N=C(c2c(-c3ccc(Cl)cc3)c3ccccc3[nH]c2=O)CC1c1ccc(Cl)cc1` (stereo not shown) [2k] had an IC50 of 2 ± 0.4 µM.
`CC(C)(C)COC(=O)CC(F)(F)C(=O)N1N=C(c2c(-c3ccc(Cl)cc3)c3ccccc3[nH]c2=O)CC1c1ccc(Cl)cc1` (stereo not shown) [2o]: inhibition was half-maximal at 12 ± 0.04 µM (IC50).

Tested on in the next series: not listed separately
Description: Liver microsome stability, human. Format: in vitro ADME. Conditions: human liver microsomes. Here is the method: Human liver microsomes (HLMs, 20 mg/mL) and CD-1 mouse liver microsomes (MLMs, 20 mg/mL) were purchased from Xenotech. NADPH was purchased from Sigma-Aldrich and prepared in 10 mM stock solutions of distilled H2O (Invitrogen UltraPure). Verapamil and diphenhydramine were both purchased from Sigma-Aldrich and served as positive controls for HLM and MLM stability, respectively. Test compounds and positive controls were initially dissolved in DMSO to make 10 mM stock solutions. Sample solutions were then further diluted in 70% MeOH/H2O or 100% MeCN to 500 μM. Next, the reactions were prepared by mixing human or mouse liver microsomes (55 μL) with potassium phosphate buffer (100 mM, […]) in 1.5 mL Eppendorf tubes. The test compounds (6.6 μL of 500 μM solution) were subsequently added to the suspensions, and the reaction mixtures were incubated at 37 °C for 5 min. Afterward, the liver microsome reactions were initiated with 110 μL of 10 mM NADPH and further incubated at 37 °C for the designated time course of the study. This procedure provided experiments with a final volume of 1100 μL (<0.6% organic solvent content), a concentration for HLMs and MLMs of 1 mg/mL, and a final test compound concentration of 3 μM. Aliquots (100 μL) were removed from each reaction mixture in duplicate at 0, 5, 10, 15, and 30 min time intervals and quenched with 100 μL of cold internal standard solution (ISTD, 2 μM 7-ethoxy-d5-coumarin in MeOH or MeCN). Quenched aliquots were then centrifuged at 12 500 g for 5–10 min, and the resulting supernatants were withdrawn and placed in LC-MS vials to be analyzed by LC-MS/MS (Agilent G6460C QQQ MS coupled with an Infinity II 1260 HPLC). Each test compound was run in tandem with positive and negative control experiments for quality assurance. Positive control reactions were conducted at a final volume of 550 μL for a single run at each time point. Lastly, the negative control experiment was conducted with test compounds and liver microsomes in the absence of NADPH (150 μL) and analyzed at the 30 min time point.
(§1) For both LM and plasma assays, each data point was analyzed in triplicate using between blank washes to avoid carry over and to equilibrate the column for the subsequent runs. Averages of these triplicates for individual compounds at each time point were then normalized to the data at 0 min, representing 100% of the test compound remaining or 0% metabolism. Half-lives (t1/2) were calculated by plotting ln of % test compound remaining versus time and performing linear regression to determine slope. Slope = −k and t1/2 = 0.693/k for first-order kinetics (see Figures S5 and S6 for a representative example).
(In general: Microsomes from liver hold many membrane-bound enzymes, among them those of drug oxidation.)
The term microsomal CLint denotes a measure of how fast metabolising enzymes remove a compound, apart from limits set by blood flow. `NC(=O)CC(F)(F)C(=O)N1N=C(c2c(-c3ccc(Cl)cc3)c3ccccc3[nH]c2=O)CC1c1ccc(Cl)cc1` (stereo not shown) [2k] displayed a microsomal CLint at 3 μM of under 23 µL/min/mg.
For the compound `CC(C)(C)COC(=O)CC(F)(F)C(=O)N1N=C(c2c(-c3ccc(Cl)cc3)c3ccccc3[nH]c2=O)CC1c1ccc(Cl)cc1` (stereo not shown) [2o], the intrinsic metabolic clearance (microsomal CLint) at 3 μM was 187 µL/min/mg.

Still in this series, the particulars now being: liver microsomes, incubation up to 30 min, 3 μM, read-out: liver microsome stability T1/2, human.
As for `NC(=O)CC(F)(F)C(=O)N1N=C(c2c(-c3ccc(Cl)cc3)c3ccccc3[nH]c2=O)CC1c1ccc(Cl)cc1` (stereo not shown) [2k], the half-life at 3 μM is over 30 min.
Regarding `CC(C)(C)COC(=O)CC(F)(F)C(=O)N1N=C(c2c(-c3ccc(Cl)cc3)c3ccccc3[nH]c2=O)CC1c1ccc(Cl)cc1` (stereo not shown) [2o], the half-life at 3 μM came out at 3.7 min.

Still in this series, the particulars now being: liver microsomes, over the assay time course (30 min), read-out: % remaining, human LMs.
For orientation: fraction remaining means the share of the starting amount still present when the sample was taken. Turning to `NC(=O)CC(F)(F)C(=O)N1N=C(c2c(-c3ccc(Cl)cc3)c3ccccc3[nH]c2=O)CC1c1ccc(Cl)cc1` (stereo not shown) [2k], the amount remaining at 0.5 h, 3 µM is over 90%.

A further series addresses T1, CYP2D6 (Homo sapiens, UniProt P10635).
T1 construct: purchased Corning; host or cells: insect cells (microsomes)
Description: Fluorometric CYP450 enzyme inhibition assay, CYP2D6. Format: in vitro ADME. The settings on record: n = 2 (2k n = 4).
In turn, `NC(=O)CC(F)(F)C(=O)N1N=C(c2c(-c3ccc(Cl)cc3)c3ccccc3[nH]c2=O)CC1c1ccc(Cl)cc1` (stereo not shown) [2k] came in with an IC50 of over 20 µM.
On to `CC(C)(C)COC(=O)CC(F)(F)C(=O)N1N=C(c2c(-c3ccc(Cl)cc3)c3ccccc3[nH]c2=O)CC1c1ccc(Cl)cc1` (stereo not shown) [2o], for which the half-inhibitory concentration (IC50) was over 20 µM.

Tested on in a further series: not listed separately
The series is described as follows: Plasma stability, mouse. Format: in vitro ADME. The settings on record: after 2 h. On the procedure: Human plasma (lithium heparin (LiHep) mixed, gender pooled, 0.2 μm filtered) and mouse plasma (BALB/C, LiHep mixed, male pooled, 0.2 μm filtered) were purchased from BioIVT. Procaine (Sigma-Aldrich) served as a positive control for both human and mouse plasma experiments. Test compounds and positive controls were initially dissolved in DMSO to make 10 mM stock solutions. The solutions of test and control compounds were then further diluted in 70% MeOH/H2O or 100% MeCN to 500 μM. Next, the human or mouse plasma (994 μL) was aliquoted into 1.5 mL Eppendorf tubes with duplicates (reactions A and B) being prepared for each compound. The plasma was then incubated at 37 °C for 10 min. Afterward, the reaction was initiated by the addition of the test compound (6 μL of 500 μM solution) and further incubated at 37 °C for the designated time course of the study. This procedure provided duplicate experiments with a final volume of 1000 μL (<0.6% organic solvent content) and a final test compound concentration of 3 μM. Aliquots (100 μL) were removed from each reaction mixture at 0, 15, 30, 60, and 120 min time intervals and quenched with 150 μL of cold ISTD solution (2 μM 7-ethoxy-d5-coumarin in MeOH or MeCN). Quenched aliquots were then centrifuged at 15,000 g for 30–45 min, and the resulting supernatants (∼70 μL) were withdrawn and placed in LC-MS vials to be analyzed by LC-MS/MS (Agilent G6460C QQQ MS coupled with an Infinity II 1260 HPLC). Each test compound was run in tandem with positive and negative control experiments for quality assurance. The positive control reaction was conducted at a final volume of 1000 μL for a single run at each time point. Finally, the negative control experiment was conducted with test compounds in DPBS (143 μL) and analyzed at the 120 min time point.
as §1
In the case of `NC(=O)CC(F)(F)C(=O)N1N=C(c2c(-c3ccc(Cl)cc3)c3ccccc3[nH]c2=O)CC1c1ccc(Cl)cc1` (stereo not shown) [2k], the “metabolized in mouse plasma (% of prodrug)” value worked out at 42%.

Still in this series, the particulars now being: male, BALB/C, mouse, mouse plasma; incubation up to 120 min; 3 μM; read-out: plasma stability T1/2, mouse.
For the compound `NC(=O)CC(F)(F)C(=O)N1N=C(c2c(-c3ccc(Cl)cc3)c3ccccc3[nH]c2=O)CC1c1ccc(Cl)cc1` (stereo not shown) [2k], the half-life at 3 μM is over 120 min.
Turning to `CC(C)(C)COC(=O)CC(F)(F)C(=O)N1N=C(c2c(-c3ccc(Cl)cc3)c3ccccc3[nH]c2=O)CC1c1ccc(Cl)cc1` (stereo not shown) [2o], the half-life at 3 μM stood at 4 min.

Tested on in the next series: not listed separately
Description: Brain homogenate tissue binding and stability (RED device). Type of series: in vitro ADME, mouse. Conditions: C57BL/6, mouse, brain homogenate (4 times diluted), pH 7.4; starting concentration 5 μM; 4 h. Here is the method: Carbamazepine (Apin Chemicals) served as a positive control for brain tissue binding. Test compounds and the positive control were initially dissolved in DMSO to make 1 mM stock solutions. […] A rapid equilibrium dialysis (RED) device (Thermo Scientific) containing a dialysis membrane with a molecular weight cutoff of 8000 Da was used to assess tissue binding and metabolic stability. […] The test compounds and positive control (200 μL of 5 μM solution) were added to the red chamber of the dialysis insert, while the white chamber was filled with dialysis buffer (350 μL). The RED device was then sealed with an adhesive film and incubated at 37 °C with shaking (300 rpm) for 4 h. For the initial time point (t = 0 min), 50 μL aliquots of test compounds and the positive control were added to 96-deep well plates (0.7 mL per well) and quenched with 400 μL of MeCN. Following dialysis, another 50 μL aliquot of the tested samples was removed from each well (brain homogenate and buffer) and diluted with an equal volume of the opposite matrix to nullify any matrix effects. […] The supernatant (100 μL) was subsequently transferred to 96-deep well plates for LC-MS/MS analysis. Prodrug metabolism and 2i concentrations were determined by fit-for-purpose LC-MS/MS methods on a nine-point calibration curve ranging from 0.12 to 7.5 μM.
Consider `NC(=O)CC(F)(F)C(=O)N1N=C(c2c(-c3ccc(Cl)cc3)c3ccccc3[nH]c2=O)CC1c1ccc(Cl)cc1` (stereo not shown) [2k], for which the fraction remaining at 4 h, 5 µM was found to be 44%.
The compound `CC(C)(C)COC(=O)CC(F)(F)C(=O)N1N=C(c2c(-c3ccc(Cl)cc3)c3ccccc3[nH]c2=O)CC1c1ccc(Cl)cc1` (stereo not shown) [2o] returned an amount remaining at 4 h, 5 µM of 53%.

The series is the same for the next values; noted with them: C57BL/6, pH 7.4; mouse brain tissue binding, RED, 4 h.
With `NC(=O)CC(F)(F)C(=O)N1N=C(c2c(-c3ccc(Cl)cc3)c3ccccc3[nH]c2=O)CC1c1ccc(Cl)cc1` (stereo not shown) [2k], the recovery at 4 h, 5 μM is 41%.
With `CC(C)(C)COC(=O)CC(F)(F)C(=O)N1N=C(c2c(-c3ccc(Cl)cc3)c3ccccc3[nH]c2=O)CC1c1ccc(Cl)cc1` (stereo not shown) [2o], the recovery at 4 h, 5 μM was 44%.

The same series, now with this note: after 4 h.
In the case of `NC(=O)CC(F)(F)C(=O)N1N=C(c2c(-c3ccc(Cl)cc3)c3ccccc3[nH]c2=O)CC1c1ccc(Cl)cc1` (stereo not shown) [2k], the “metabolized in brain homogenate (% of prodrug)” value amounted to 56%.

The same series, now with this note: brain homogenate stability sample, 0 h.
For the compound `CC(C)(C)COC(=O)CC(F)(F)C(=O)N1N=C(c2c(-c3ccc(Cl)cc3)c3ccccc3[nH]c2=O)CC1c1ccc(Cl)cc1` (stereo not shown) [2o], the “Average 2i Concentration, Brain_St_0Hr_Mice” value is listed as “BLQ”.

Staying with this series, now noted: buffer chamber after 4 h dialysis.
As for `CC(C)(C)COC(=O)CC(F)(F)C(=O)N1N=C(c2c(-c3ccc(Cl)cc3)c3ccccc3[nH]c2=O)CC1c1ccc(Cl)cc1` (stereo not shown) [2o], the “Average 2i Concentration, Buffer_Mice” value was “BLQ”.
